Read-outs that look alike come from different tables or passages of the source.

Our source for the IC50 and EC50 values is US20240245658A1, “TAAR1 AND SEROTONIN MODULATORS, AND PHARMACEUTICAL COMPOSITIONS, AND METHODS OF USE THEREOF” (Sunovion Pharmaceuticals Inc., priority 2021, published 2024).

Common to all, as to type: cell-based
One assay addresses T1, human 5-HT2A receptor (Homo sapiens, UniProt P28223).
T1 construct: host or cells: CHO-K1
Nature of the assay: 5HT2A Antagonism Assay (Euroscreen FAST-05051), IP-One HTRF. In short, it runs like this: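 CHO-K1 cells expressing receptor, 20,000/well, co-incubated with test compound and reference agonist at its EC80 for 60 min at 37 °C. IP1 accumulation read by HTRF after ~1 h detection at room temperature. Compounds tested in duplicate at 0.3–10,000 nM.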
In general terms: TR-FRET usually uses a lanthanide donor and a delayed reading to cut background.

The target in a further assay is T2, human TAAR1 receptors (Homo sapiens, UniProt Q96RJ0).
T2 construct: host or cells: CHO-K1
T2 sequence (Q96RJ0 1-339): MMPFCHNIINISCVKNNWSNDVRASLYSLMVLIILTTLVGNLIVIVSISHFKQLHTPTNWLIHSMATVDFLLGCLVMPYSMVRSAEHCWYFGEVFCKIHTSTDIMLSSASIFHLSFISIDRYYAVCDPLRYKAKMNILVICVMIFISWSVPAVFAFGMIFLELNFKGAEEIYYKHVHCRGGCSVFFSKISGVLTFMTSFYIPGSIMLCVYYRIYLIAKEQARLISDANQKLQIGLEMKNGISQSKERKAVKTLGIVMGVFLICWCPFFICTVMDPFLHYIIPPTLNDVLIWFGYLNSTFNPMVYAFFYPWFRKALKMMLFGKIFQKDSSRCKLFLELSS
The assay is described as follows: TAAR1 Agonism Assay: cAMP HTRF assay for Gs coupled receptor TAAR1 (Euroscreen FAST-0987C). The following applies: CHO-K1 cells expressing human TAAR1, cAMP HTRF. In short, it runs like this: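 cAMP accumulation detected by HTRF fluorescence ratio, reagents added in lysis buffer and incubated 1 h at about room temperature. Beforehand, cells (about 3,000 per well) sat with test compound at ten concentrations from 0.3 to 10,000 nM in duplicate for roughly 30 min at about room temperature; tyramine dose-response run alongside.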

The next assay has as its target T3, human 5-HT7 receptor (Homo sapiens, UniProt P34969).
T3 construct: host or cells: CHO-K1
Nature of the assay: 5HT7 Antagonism Assay (Euroscreen FAST-0499C), cAMP HTRF. The following applies: CHO-K1 cells expressing human 5-HT7, reference agonist at EC80, cAMP HTRF. In short, it runs like this: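 CHO-K1 cells expressing human 5-HT7, 3000 per well in Krebs-Ringer HEPES with 1 mM IBMX, were exposed for 30 minutes at room temperature to compound plus reference agonist at its EC80. cAMP was read by HTRF after 1 hour; compounds were tested in duplicate from 0.3 to 10,000 nM.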

[1] abbreviates: 5-HT2A (IC50), CHO-K1 cells expressing human 5-HT2A, reference agonist at EC80, IP-One.
Where [2] appears, read: read-out: 5-HT2A (IC50), CHO-K1 cells expressing human 5-HT2A, reference agonist at EC80, IP-One.
The mark [3] stands for this setting: CHO-K1 cells expressing human 5-HT2A, reference agonist at EC80, IP-One, read-out: 5-HT2A (IC50).

T1 sequence (P28223 whole entry): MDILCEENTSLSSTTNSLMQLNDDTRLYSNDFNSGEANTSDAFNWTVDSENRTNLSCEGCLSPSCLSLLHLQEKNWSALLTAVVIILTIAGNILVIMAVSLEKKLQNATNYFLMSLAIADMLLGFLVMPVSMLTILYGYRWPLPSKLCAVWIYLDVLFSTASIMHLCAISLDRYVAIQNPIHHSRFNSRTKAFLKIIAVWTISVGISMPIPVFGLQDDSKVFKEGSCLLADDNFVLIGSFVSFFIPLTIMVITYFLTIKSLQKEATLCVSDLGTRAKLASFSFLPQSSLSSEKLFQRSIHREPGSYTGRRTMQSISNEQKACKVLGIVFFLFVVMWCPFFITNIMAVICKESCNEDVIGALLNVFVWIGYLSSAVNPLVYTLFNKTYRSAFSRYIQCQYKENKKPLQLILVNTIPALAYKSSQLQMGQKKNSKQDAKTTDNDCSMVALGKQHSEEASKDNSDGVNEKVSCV
T3 sequence (P34969 whole entry): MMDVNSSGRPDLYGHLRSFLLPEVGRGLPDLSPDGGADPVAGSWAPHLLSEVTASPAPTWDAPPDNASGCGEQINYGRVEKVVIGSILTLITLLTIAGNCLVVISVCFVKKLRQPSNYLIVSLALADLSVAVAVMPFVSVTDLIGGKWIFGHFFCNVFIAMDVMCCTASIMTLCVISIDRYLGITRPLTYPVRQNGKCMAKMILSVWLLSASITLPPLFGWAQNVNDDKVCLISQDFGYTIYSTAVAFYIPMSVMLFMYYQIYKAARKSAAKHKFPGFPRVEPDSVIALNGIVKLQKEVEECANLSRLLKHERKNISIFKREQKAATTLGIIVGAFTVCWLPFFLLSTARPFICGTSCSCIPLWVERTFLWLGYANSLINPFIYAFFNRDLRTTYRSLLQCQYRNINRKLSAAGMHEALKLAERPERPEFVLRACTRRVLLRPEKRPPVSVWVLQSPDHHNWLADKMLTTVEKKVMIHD

As to `NCC1Cc2ncccc2Oc2ccc(Cl)cc21` (single isomer, unassigned) [Compound 167, (R*)-(8-chloro-10,11-dihydrobenzo[6,7]oxepino[3,2-b]pyridin-10-yl)methanamine], the IC50 was 1 to 10 µM at human 5-HT2A receptor (setting [1]) and no less than 10 µM at human 5-HT7 receptor. The compound also yielded an EC50 at human TAAR1 receptors of less than 1 µM.
Regarding `CNCC1Cc2ncccc2Oc2ccc(Cl)cc21` (single isomer, unassigned) [Compound 170, (S*)-1-(8-chloro-10,11-dihydrobenzo[6,7]oxepino[3,2-b]pyridin-10-yl)-N-methylmethanamine], the IC50 at human 5-HT2A receptor (setting [1]) and at human 5-HT7 receptor was less than 1 µM throughout. This compound also gave an EC50 on human TAAR1 receptors of less than 1 µM.
For the compound `NCC1Cc2ncccc2Oc2cc(Cl)ccc21` (single isomer, unassigned) [Compound 171, (R*)-(7-chloro-10,11-dihydrobenzo[6,7]oxepino[3,2-b]pyridin-10-yl)methanamine], the IC50 was less than 1 µM at human 5-HT2A receptor (setting [1]) and no less than 10 µM at human 5-HT7 receptor. The EC50 on human TAAR1 receptors lay in the range of 1 to 10 µM.
`NCC1Cc2ncccc2Oc2cc(Cl)ccc21` (single isomer, unassigned) [Compound 172, (S*)-(7-chloro-10,11-dihydrobenzo[6,7]oxepino[3,2-b]pyridin-10-yl)methanamine]: the figures for the IC50 on human 5-HT2A receptor (setting [2]) and on human 5-HT7 receptor were less than 1 µM and no less than 10 µM, respectively. For the same compound, the half-maximal effective concentration (EC50) at human TAAR1 receptors was less than 1 µM.
Regarding `CNCC1Cc2ncccc2Oc2cc(Cl)ccc21` (single isomer, unassigned) [Compound 173, (R*)-1-(7-chloro-10,11-dihydrobenzo[6,7]oxepino[3,2-b]pyridin-10-yl)-N-methylmethanamine], the IC50 at human 5-HT2A receptor (setting [3]) was less than 1 µM; at human 5-HT7 receptor, no less than 10 µM. The same compound displayed an EC50 on human TAAR1 receptors greater than 10 µM.
The corresponding values for `CNCC1Cc2ncccc2Oc2cc(Cl)ccc21` (single isomer, unassigned) [Compound 174, (S*)-1-(7-chloro-10,11-dihydrobenzo[6,7]oxepino[3,2-b]pyridin-10-yl)-N-methylmethanamine] are less than 1 µM, 1 to 10 µM and greater than 10 µM.
`NCC1Cc2ncccc2Oc2c(F)cccc21` (single isomer, unassigned) [Compound 176, (S*)-(6-fluoro-10,11-dihydrobenzo[6,7]oxepino[3,2-b]pyridin-10-yl)methanamine]: the IC50 is greater than 10 µM at human 5-HT2A receptor (setting [1]) and no less than 10 µM on human 5-HT7 receptor. The EC50 at human TAAR1 receptors was less than 1 µM.
On to `NCC1Cc2ncc(Cl)cc2Oc2ccccc21` (single isomer, unassigned) [Compound 179, (R*)-(3-chloro-10,11-dihydrobenzo[6,7]oxepino[3,2-b]pyridin-10-yl)methanamine], for which the IC50 on human 5-HT2A receptor (setting [1]) is 1 to 10 µM; at human 5-HT7 receptor it was no less than 10 µM. Besides, the EC50 on human TAAR1 receptors was in the range of 1 to 10 µM.
For `NCC1Cc2ncc(Cl)cc2Oc2ccccc21` (single isomer, unassigned) [Compound 180, (S*)-(3-chloro-10,11-dihydrobenzo[6,7]oxepino[3,2-b]pyridin-10-yl)methanamine], the IC50 on human 5-HT2A receptor (setting [2]) was 1 to 10 µM; at human 5-HT7 receptor it was no less than 10 µM. The compound further displayed an EC50 on human TAAR1 receptors of less than 1 µM.
For `C[C@@H]1c2ccccc2Oc2cccnc2[C@@H]1CN` (stereo in doubt) [Compound 112, ((10S*,11S*)-10-methyl-10,11-dihydrobenzo[6,7]oxepino[3,2-b]pyridin-11-yl)methanamine], the IC50 was greater than 10 µM at human 5-HT2A receptor (setting [1]) and no less than 10 µM at human 5-HT7 receptor. The same compound displayed an EC50 at human TAAR1 receptors of less than 1 µM.
In the case of `C[C@@H]1c2ccccc2Oc2cccnc2[C@H]1CN` (stereo in doubt) [Compound 114, ((10S*,11R*)-10-methyl-10,11-dihydrobenzo[6,7]oxepino[3,2-b]pyridin-11-yl)methanamine], the IC50 is 1 to 10 µM on human 5-HT2A receptor (setting [1]) and no less than 10 µM at human 5-HT7 receptor. The compound also displayed a half-maximal effective concentration (EC50) at human TAAR1 receptors of less than 1 µM.
`C[C@H]1c2ccccc2Oc2cccnc2[C@@H]1CN` (stereo in doubt) [Compound 115, ((10R*,11S*)-10-methyl-10,11-dihydrobenzo[6,7]oxepino[3,2-b]pyridin-11-yl)methanamine]: the results for the IC50 at human 5-HT2A receptor (setting [1]) and at human 5-HT7 receptor were greater than 10 µM and no less than 10 µM, respectively. This compound displayed an EC50 on human TAAR1 receptors of 1 to 10 µM.
The matching figures for `CNC[C@H]1c2ncccc2Oc2ccccc2[C@H]1C` (stereo in doubt) [Compound 116, ((10S*,11S*)-10-methyl-10,11-dihydrobenzo[6,7]oxepino[3,2-b]pyridin-11-yl)-N-methylmethanamine]: 1 to 10 µM, no less than 10 µM and less than 1 µM.
The matching figures for `CNC[C@@H]1c2ncccc2Oc2ccccc2[C@H]1C` (stereo in doubt) [Compound 118, ((10S*,11R*)-10-methyl-10,11-dihydrobenzo[6,7]oxepino[3,2-b]pyridin-11-yl)-N-methylmethanamine]: 1 to 10 µM, no less than 10 µM and less than 1 µM.
With `CNC[C@H]1c2ncccc2Oc2ccccc2[C@@H]1C` (stereo in doubt) [Compound 119, ((10R*,11S*)-10-methyl-10,11-dihydrobenzo[6,7]oxepino[3,2-b]pyridin-11-yl)-N-methylmethanamine], the 50% inhibitory concentration (IC50) at human 5-HT2A receptor (setting [1]) is 1 to 10 µM; on human 5-HT7 receptor, no less than 10 µM. Also, the EC50 at human TAAR1 receptors was 1 to 10 µM.
Regarding `NCC1Oc2ccccc2Cc2ccccc21` (stereo not drawn) [Compound 77, (6,11-dihydrodibenzo[b,e]oxepin-6-yl)methanamine], the half-inhibitory concentration (IC50) at human 5-HT2A receptor (setting [3]) is 1 to 10 µM; on human 5-HT7 receptor, no less than 10 µM. In addition, on human TAAR1 receptors, the EC50 is less than 1 µM.

In general, IC50 refers to the concentration needed to halve the response being measured. Broadly, the EC50 is the concentration at which the effect is half-maximal.
